Test results taken from US11596639B2, “Substituted indole Mcl-1 inhibitors” (Vanderbilt University, priority 2016, dated 2023).

Key:
Mcl-1 = Mcl-1 (Homo sapiens (Human), UniProt Q07820); experiment: TR-FRET binding assay, FITC-Bak peptide and MBP-tagged Mcl-1; details: read-out: Ki for Inhibition of Mcl-1 by TR-FRET assay
Procedure: Compounds are diluted in DMSO in a 16-point, semilog serial dilution scheme. […] The plate was mixed and incubated for 3 hours at room temperature. […] TR-FRET signal is plotted and IC50 and Ki values are calculated in the same manner as the fluorescence polarization anisotropy based competition assays.

[1] = tested on: H929 human cancer cell lines; experiment: Cellular viability / proliferation (Cell TiterGlo, 72 h); type: cell-based; details: Homo sapiens, NCI-H929, 72 h, read-out: GI50 on cellular proliferation of H929 human cancer cell lines, H929 cells, 72 h, Cell TiterGlo, 10% FBS
Outline: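 Cells were seeded at 1,000 cells/well in medium with 10% FBS and dosed 24 h later with a 2-fold serial dilution of compound (top concentration 50 μM, final DMSO <1%).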

Mcl-1, sequence (Q07820 172-327): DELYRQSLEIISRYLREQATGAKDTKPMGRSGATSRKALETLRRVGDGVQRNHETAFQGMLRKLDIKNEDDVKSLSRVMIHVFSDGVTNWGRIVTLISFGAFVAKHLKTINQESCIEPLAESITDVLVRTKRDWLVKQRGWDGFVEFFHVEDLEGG

| SMILES | Ki (Mcl-1) | GI50 [1] |
| --- | --- | --- |
| Cc1cc(OCCCc2c3n(c4c(-c5c(C)nn(C)c5C)c(Cl)ccc24)[C@H](C)CN(c2cn(C)c4ccc(-n5cncn5)cc24)C3=O)cc(C)c1Cl [Example 681, (R)-7-Chloro-10-(3-(4-chloro-3,5-dimethylphenoxy)propyl)-4-methyl-2-(1-methyl-5-(1H-1,2,4-triazol-1-yl)-1H-indol-3-yl)-6-(1,3,5-trimethyl-1H-pyrazol-4-yl)-3,4-dihydropyrazino[1,2-a]indol-1(2H)-one] | 5.5 nM | 940 nM |
| Cc1ccnc(Cn2cc(C(=O)O)c3cccc(N4C[C@@H](C)n5c(c(CCCOc6cc(C)c(Cl)c(C)c6)c6ccc(Cl)c(-c7c(C)nn(C)c7C)c65)C4=O)c32)c1 [Example 480, (R)-7-(7-Chloro-10-(3-(4-chloro-3,5-dimethylphenoxy)propyl)-4-methyl-1-oxo-6-(1,3,5-trimethyl-1H-pyrazol-4-yl)-3,4-dihydropyrazino[1,2-a]indol-2(1H)-yl)-1-((4-methylpyridin-2-yl)methyl)-1H-indole-3-carboxylic acid] | < 0.2 nM | 250 nM |
| COCCOCCOc1cc(N2C[C@@H](C)n3c(c(CCCOc4cc(C)c(Cl)c(C)c4)c4ccc(Cl)c(-c5c(C)ncnc5C)c43)C2=O)c2c(c1)cc(C(=O)O)n2C [Example 631, (R)-7-(7-chloro-10-(3-(4-chloro-3,5-dimethylphenoxy)propyl)-6-(4,6-dimethylpyrimidin-5-yl)-4-methyl-1-oxo-3,4-dihydropyrazino[1,2-a]indol-2(1H)-yl)-5-(2-(2-methoxyethoxy)ethoxy)-1-methyl-1H-indole-2-carboxylic acid] | < 0.2 nM | 300 nM |
| Cc1cc(OCCCc2c3n(c4c(-c5c(C)nn(C)c5C)c(Cl)ccc24)[C@H](C)CN(c2cc(NCCN(C)C)cc4c(C(=O)O)cn(C)c24)C3=O)cc(C)c1Cl [Example 498, (R)-7-(7-chloro-10-(3-(4-chloro-3,5-dimethylphenoxy)propyl)-4-methyl-1-oxo-6-(1,3,5-trimethyl-1H-pyrazol-4-yl)-3,4-dihydropyrazino[1,2-a]indol-2(1H)-yl)-5-((2-(dimethylamino)ethyl)amino)-1-methyl-1H-indole-3-carboxylic acid] | 0.58 nM | 1900 nM |
| Cc1cc(OCCCc2c3n(c4c(-c5c(C)nn(C)c5C)c(Cl)ccc24)[C@H](C)CN(c2cc(COCc4cscn4)cc4cc(C(=O)O)n(C)c24)C3=O)cc(C)c1Cl [Example 688, (R)-7-(7-chloro-10-(3-(4-chloro-3,5-dimethylphenoxy)propyl)-4-methyl-1-oxo-6-(1,3,5-trimethyl-1H-pyrazol-4-yl)-3,4-dihydropyrazino[1,2-a]indol-2(1H)-yl)-1-methyl-5-((thiazol-4-ylmethoxy)methyl)-1H-indole-2-carboxylic acid] | 0.22 nM | 430 nM |
| Cc1cc(OCCCc2c3n(c4c(-c5c(C)nn(C)c5C)c(Cl)ccc24)[C@H](C)CN(c2cn(C)c4ccc(-c5cncnc5)cc24)C3=O)cc(C)c1Cl [Example 653, (R)-7-Chloro-10-(3-(4-chloro-3,5-dimethylphenoxy)propyl)-4-methyl-2-(1-methyl-5-(pyrimidin-5-yl)-1H-indol-3-yl)-6-(1,3,5-trimethyl-1H-pyrazol-4-yl)-3,4-dihydropyrazino[1,2-a]indol-1(2H)-one] | 15 nM | 1900 nM |
| Cc1cc(OCCCc2c3n(c4c(-c5c(C)nn(C)c5C)c(Cl)ccc24)[C@H](C)CN(c2cc(OCC4CC4)cc4cc(C(=O)O)n(C)c24)C3=O)cc(C)c1Cl [Example 485, (R)-7-(7-Chloro-10-(3-(4-chloro-3,5-dimethylphenoxy)propyl)-4-methyl-1-oxo-6-(1,3,5-trimethyl-1H-pyrazol-4-yl)-3,4-dihydropyrazino[1,2-a]indol-2(1H)-yl)-5-(cyclopropylmethoxy)-1-methyl-1H-indole-2-carboxylic acid] | 0.35 nM | 410 nM |
| COCc1cc(N2C[C@@H](C)n3c(c(CCCOc4cc(C)c(Cl)c(C)c4)c4ccc(Cl)c(-c5c(C)nn(C)c5C)c43)C2=O)c2c(c1)cc(C(=O)O)n2Cc1ccccn1 [Example 691, (R)-7-(7-chloro-10-(3-(4-chloro-3,5-dimethylphenoxy)propyl)-4-methyl-1-oxo-6-(1,3,5-trimethyl-1H-pyrazol-4-yl)-3,4-dihydropyrazino[1,2-a]indol-2(1H)-yl)-5-(methoxymethyl)-1-(pyridin-2-ylmethyl)-1H-indole-2-carboxylic acid] | < 0.2 nM | < 200 nM |
| Cc1cc(OCCCc2c3n(c4c(-c5c(C)nn(C)c5C)c(Cl)ccc24)[C@H](C)CN(c2cn(C)c4ncc(C(=O)O)nc24)C3=O)cc(C)c1Cl [Example 585, (R)-7-(7-chloro-10-(3-(4-chloro-3,5-dimethylphenoxy)propyl)-4-methyl-1-oxo-6-(1,3,5-trimethyl-1H-pyrazol-4-yl)-3,4-dihydropyrazino[1,2-a]indol-2(1H)-yl)-5-methyl-5H-pyrrolo[2,3-b]pyrazine-2-carboxylic acid] | < 0.2 nM | 1500 nM |
| Cc1cc(OCCCc2c3n(c4c(-c5c(C)nn(C)c5C)c(Cl)ccc24)[C@H](C)CN(c2cn(CCN(C)C)c4ccc(C(=O)O)cc24)C3=O)cc(C)c1Cl [Example 510, (R)-3-(7-Chloro-10-(3-(4-chloro-3,5-dimethylphenoxy)propyl)-4-methyl-1-oxo-6-(1,3,5-trimethyl-1H-pyrazol-4-yl)-3,4-dihydropyrazino[1,2-a]indol-2(1H)-yl)-1-(2-(dimethylamino)ethyl)-1H-indole-5-carboxylic acid] | < 0.2 nM | 240 nM |
| Cc1cccc(Cn2cc(C(=O)O)c3cccc(N4C[C@@H](C)n5c(c(CCCOc6cc(C)c(Cl)c(C)c6)c6ccc(Cl)c(-c7c(C)nn(C)c7C)c65)C4=O)c32)n1 (single isomer, unassigned) [Example 491] | < 0.2 nM | 280 nM |
| Cc1cc(OCCCc2c3n(c4c(-c5c(C)ncnc5C)c(Cl)ccc24)[C@H](C)CN(c2cn(C)c4ncc(C(=O)O)cc24)C3=O)cc(C)c1Cl [Example 636, (R)-3-(7-chloro-10-(3-(4-chloro-3,5-dimethylphenoxy)propyl)-6-(4,6-dimethylpyrimidin-5-yl)-4-methyl-1-oxo-3,4-dihydropyrazino[1,2-a]indol-2(1H)-yl)-1-methyl-1H-pyrrolo[2,3-b]pyridine-5-carboxylic acid] | 0.5 nM | 980 nM |
| Cc1cc(OCCCc2c3n(c4c(-c5c(C)nn(C)c5C)c(Cl)ccc24)[C@H](C)CN(c2cn(CC(N)=O)c4ccc(C(=O)O)cc24)C3=O)cc(C)c1Cl [Example 620, (R)-1-(2-amino-2-oxoethyl)-3-(7-chloro-10-(3-(4-chloro-3,5-dimethylphenoxy)propyl)-4-methyl-1-oxo-6-(1,3,5-trimethyl-1H-pyrazol-4-yl)-3,4-dihydropyrazino[1,2-a]indol-2(1H)-yl)-1H-indole-5-carboxylic acid] | < 0.2 nM | 7600 nM |
| Cc1cc(OCCCc2c3n(c4c(-c5c(C)ncnc5C)c(Cl)ccc24)[C@H](C)CN(c2cn(C)c4ccc(-c5ncn(C)n5)cc24)C3=O)cc(C)c1Cl [Example 574, (R)-7-Chloro-10-(3-(4-chloro-3,5-dimethylphenoxy)propyl)-6-(4,6-dimethylpyrimidin-5-yl)-4-methyl-2-(1-methyl-5-(1-methyl-1H-1,2,4-triazol-3-yl)-1H-indol-3-yl)-3,4-dihydropyrazino[1,2-a]indol-1(2H)-one] | 2.4 nM | 270 nM |
| Cc1cc(OCCCc2c3n(c4c(-c5c(C)nn(C)c5C)c(Cl)ccc24)[C@H](C)CN(c2cn(CCN4CCN(C)CC4)c4ccc(-c5ncn(C)n5)cc24)C3=O)cc(C)c1Cl [Example 526, (R)-7-Chloro-10-(3-(4-chloro-3,5-dimethylphenoxy)propyl)-4-methyl-2-(5-(1-methyl-1H-1,2,4-triazol-3-yl)-1-(2-(4-methylpiperazin-1-yl)ethyl)-1H-indol-3-yl)-6-(1,3,5-trimethyl-1H-pyrazol-4-yl)-3,4-dihydropyrazino[1,2-a]indol-1(2H)-one] | < 0.2 nM | < 200 nM |
| Cc1cc(OCCCc2c3n(c4c(-c5c(C)nn(C)c5C)c(Cl)ccc24)[C@H](C)CN(c2cc(NC(=O)CCN(C)C)cc4c(C(=O)O)cn(C)c24)C3=O)cc(C)c1Cl [Example 541, (R)-7-(7-Chloro-10-(3-(4-chloro-3,5-dimethylphenoxy)propyl)-4-methyl-1-oxo-6-(1,3,5-trimethyl-1H-pyrazol-4-yl)-3,4-dihydropyrazino[1,2-a]indol-2(1H)-yl)-5-(3-(dimethylamino)propanamido)-1-methyl-1H-indole-3-carboxylic acid] | 0.53 nM | 1700 nM |
| Cc1cc(OCCCc2c3n(c4c(-c5c(C)nn(C)c5C)c(Cl)ccc24)[C@H](C)CN(c2cn(C)c4ccc(-c5nc6ccccn6n5)cc24)C3=O)cc(C)c1Cl [Example 648, (R)-2-(5-([1,2,4]Triazolo[1,5-a]pyridin-2-yl)-1-methyl-1H-indol-3-yl)-7-chloro-10-(3-(4-chloro-3,5-dimethylphenoxy)propyl)-4-methyl-6-(1,3,5-trimethyl-1H-pyrazol-4-yl)-3,4-dihydropyrazino[1,2-a]indol-1(2H)-one] | 0.23 nM | 310 nM |
| Cc1cc(OCCCc2c3n(c4c(-c5c(C)nn(C)c5C)c(Cl)ccc24)[C@H](C)CN(c2cn(CC(=O)N(C)C)c4ccc(-c5ncn(C)n5)cc24)C3=O)cc(C)c1Cl [Example 560, (R)-2-(3-(7-Chloro-10-(3-(4-chloro-3,5-dimethylphenoxy)propyl)-4-methyl-1-oxo-6-(1,3,5-trimethyl-1H-pyrazol-4-yl)-3,4-dihydropyrazino[1,2-a]indol-2(1H)-yl)-5-(1-methyl-1H-1,2,4-triazol-3-yl)-1H-indol-1-yl)-N,N-dimethylacetamide] | 0.53 nM | 270 nM |
